Results on 27 compounds are retold here after patent publication US20080058293A1, “Quinoline Derivates and Their Use in Therapy” (priority 2003, published 2008).

Each structure is given as a SMILES string. Where a name gives a salt, the structure may show the parent alone.

What is called melting point is the temperature of the solid-liquid transition. Regarding `O=C(NCC(c1ccccc1)c1ccccc1)c1c(Cl)ccc2nc(N3CCC(C(=O)O)CC3)ccc12` (as salt: acetate) [Example 25, 1-[6-Chloro-5-[[(2,2-diphenylethyl)amino]carbonyl]-2-quinolinyl]-4-piperidinecarboxylic acid, acetate], the melting point was 180 to 185 °C. For `Cc1ccc2c(C(=O)NC[C@H](C)c3ccccc3)c(Cl)ccc2n1` (as salt: hydrochloride) [Example 1, 6-Chloro-2-methyl-N-[(2R)-2-phenylpropyl]-5-quinolinecarboxamide, hydrochloride] the value was 190 to 192 °C. As for `Cc1ccc2c(C(=O)NC[C@@H](C)c3ccccc3)c(Cl)ccc2n1` (as salt: hydrochloride) [Example 2, 6-Chloro-2-methyl-N-[(2S)-2-phenylpropyl]-5-quinolinecarboxamide, hydrochloride], the melting point was in the range of 182 to 185 °C. The result for `C[C@H](CC(=O)Nc1c(Cl)ccc2nc(NCCNCCO)ccc12)c1ccccc1` (as salt: hydrochloride) [Example 9, (βR)-N-[6-Chloro-2-[[2-[(2-hydroxyethyl)amino]ethyl]amino]-5-quinolinyl]-β-methyl-benzenepropanamide, dihydrochloride] reads 178 to 182 °C. On to `O=C(CCc1ccccc1Cl)Nc1c(Cl)ccc2nc(N3CCNCC3)ccc12` (as salt: hydrochloride) [Example 10, 2-Chloro-N-[6-chloro-2-(1-piperazinyl)-5-quinolinyl]-benzenepropanamide, dihydrochloride], for which the melting point fell in the range of 265 to 270 °C.

Take `O=C(CCc1ccc(Cl)cc1Cl)Nc1c(Cl)ccc2nc(N3CCNCC3)ccc12` (as salt: hydrochloride) [Example 11, 2,4-Dichloro-N-[6-chloro-2-(1-piperazinyl)-5-quinolinyl]-benzenepropanamide, dihydrochloride]: the melting point was 200 °C (dec.).

`O=C(CCc1ccc(Cl)cc1)Nc1c(Cl)ccc2nc(N3CCNCC3)ccc12` (as salt: hydrochloride) [Example 12, 4-Chloro-N-[6-chloro-2-(1-piperazinyl)-5-quinolinyl]-benzenepropanamide, dihydrochloride]: the melting point was in the range of 183 to 188 °C. For `C[C@H](CC(=O)Nc1c(Cl)ccc2nc(N3CC[C@H](NCCO)C3)ccc12)c1ccccc1` (as salt: hydrochloride) [Example 16, (βR)-N-[6-Chloro-2-[(3S)-3-[(2-hydroxyethyl)amino]-1-pyrrolidinyl]-5-quinolinyl]-β-methyl-benzenepropanamide, dihydrochloride] the value was 177 to 182 °C. For `CNCCCN(C)c1ccc2c(NC(=O)C[C@@H](C)c3ccccc3)c(Cl)ccc2n1` (as salt: trifluoroacetate) [Example 3, (βR)-N-[6-Chloro-2-[methyl[3-(methylamino)propyl]amino]-5-quinolinyl]-β-methyl-benzenepropanamide, ditrifluoroacetate] the value was 159 to 162 °C; for `C[C@H](CC(=O)Nc1c(Cl)ccc2nc(N3CCNCC3)ccc12)c1ccccc1` [Example 4, (βR)-N-[6-Chloro-2-(1-piperazinyl)-5-quinolinyl]-β-methyl-benzenepropanamide], 194 to 196 °C. The result for `Cc1ccc2c(C(=O)NCCc3ccccc3)c(Cl)ccc2n1` [Example 5, 6-Chloro-2-methyl-N-(2-phenylethyl)-5-quinolinecarboxamide] reads 170 to 172 °C; that for `C[C@H](CC(=O)Nc1c(Cl)ccc2nc(CCCNCCCO)ccc12)c1ccccc1` [Example 7, (βR)-N-[6-Chloro-2-[3-[(3-hydroxypropyl)amino]propyl]-5-quinolinyl]-β-methyl-benzenepropanamide], 118 to 120 °C; that for `CC(Cc1ccc(Cl)c(Cl)c1)C(=O)Nc1cccc2ncccc12` (stereo not drawn) [Example 8, 3,4-Dichloro-α-methyl-N-5-quinolinyl-benzenepropanamide], 168 to 170 °C. For `C[C@H](CC(=O)Nc1c(Cl)ccc2nc(N3CC[C@H](N)C3)ccc12)c1ccccc1` [Example 13, (βR)-N-[2-[(3S)-3-Amino-1-pyrrolidinyl]-6-chloro-5-quinolinyl]-β-methyl-benzenepropanamide], the melting point is 204 to 207 °C.

`C[C@H](CC(=O)Nc1c(Cl)ccc2nc(N3CC[C@H](NCCCO)C3)ccc12)c1ccccc1` [Example 15, (βR)-N-[6-Chloro-2-[(3S)-3-[(3-hydroxypropyl)amino]-1-pyrrolidinyl]-5-quinolinyl]-β-methyl-benzenepropanamide] came in with a melting point of 155 to 158 °C. The result for `O=C(CCc1ccccc1)Nc1c(Cl)ccc2nc(N3CCNCC3)ccc12` [Example 17, N-[6-Chloro-2-(1-piperazinyl)-5-quinolinyl]-benzenepropanamide] reads 231 to 234 °C; that for `N[C@H]1CCN(c2ccc3c(NC(=O)CCc4ccccc4Cl)c(Cl)ccc3n2)C1` [Example 18, N-[2-[(3S)-3-Amino-1-pyrrolidinyl]-6-chloro-5-quinolinyl]-2-chlorobenzenepropanamide], 200 to 212 °C. The result for `O=C(CCc1ccccc1Cl)Nc1c(Cl)ccc2nc(N3CC[C@H](NCCO)C3)ccc12` [Example 19, 2-Chloro-N-[6-chloro-2-[(3S)-3-[(2-hydroxyethyl)amino]-1-pyrrolidinyl]-5-quinolinyl]-benzenepropanamide] reads 180 to 182 °C; that for `N[C@H]1CCN(c2ccc3c(C(=O)NCCc4ccccc4Cl)c(Cl)ccc3n2)C1` [Example 21, 2-[(3S)-3-Amino-1-pyrrolidinyl]-6-chloro-N-[2-(2-chlorophenyl)ethyl]-5-quinolinecarboxamide], 196 to 198 °C; that for `O=C(NCCc1ccccc1Cl)c1c(Cl)ccc2nc(N3CC[C@H](NCCO)C3)ccc12` [Example 22, 6-Chloro-N-[2-(2-chlorophenyl)ethyl]-2-[(3S)-3-[(2-hydroxyethyl)amino]-1-pyrrolidinyl]-5-quinolinecarboxamide], 170 to 172 °C. For `O=C(NCCc1c(Cl)cccc1Cl)c1c(Cl)ccc2nc(N3CCC(C(=O)O)CC3)ccc12` [Example 23, 1-[6-Chloro-5-[[[2-(2,6-dichlorophenyl)ethyl]amino]carbonyl]-2-quinolinyl]-4-piperidinecarboxylic acid] the value was 262 to 264 °C; for `O=C(NCCc1ccccc1Cl)c1c(Cl)ccc2nc(N3CCC(C(=O)O)CC3)ccc12` [Example 24, 1-[6-Chloro-5-[[[2-(2-chlorophenyl)ethyl]amino]carbonyl]-2-quinolinyl]-4-piperidinecarboxylic acid], 250 to 253 °C; for `O=C(NCCc1ccccc1)c1c(Cl)ccc2nc(N3CCC(C(=O)O)CC3)ccc12` [Example 26, 1-[6-Chloro-5-[[(2-phenylethyl)amino]carbonyl]-2-quinolinyl]-4-piperidinecarboxylic acid], 260 to 262 °C.

The compound `O=C(NCCc1ccccc1F)c1c(Cl)ccc2nc(N3CCC(C(=O)O)CC3)ccc12` [Example 27, 1-[6-Chloro-5-[[[2-(2-fluorophenyl)ethyl]amino]carbonyl]-2-quinolinyl]-4-piperidinecarboxylic acid] returned a melting point of 270 to 272 °C. `Cc1ccccc1CCNC(=O)c1c(Cl)ccc2nc(N3CCC(C(=O)O)CC3)ccc12` [Example 28, 1-[6-Chloro-5-[[[2-(2-methylphenyl)ethyl]amino]carbonyl]-2-quinolinyl]-4-piperidinecarboxylic acid] had a melting point of 237 to 241 °C. The result for `C[C@H](CNC(=O)c1c(Cl)ccc2nc(N3CCC(C(=O)O)CC3)ccc12)c1ccccc1` [Example 29, 1-[6-Chloro-5-[[[(2S)-2-phenylpropyl]amino]carbonyl]-2-quinolinyl]-4-piperidinecarboxylic acid] reads 150 to 153 °C; that for `O=C(NCCc1ccc(Cl)cc1)c1c(Cl)ccc2nc(N3CCC(C(=O)O)CC3)ccc12` [Example 31, 1-[6-Chloro-5-[[[2-(4-chlorophenyl)ethyl]amino]carbonyl]-2-quinolinyl]-4-piperidinecarboxylic acid], 231 to 234 °C.
